Test results from patent US6444614B2, “Aspartic acid derivative-containing compositions and use thereof in stimulating and/or regulating plant and plant precursor growth” (LidoChem Inc., priority 2000, dated 2002).
Where a name gives a salt, the structure may show the parent alone.

How the values were obtained:
Mexican Heather plants = assay: Soil application of IDS and/or EDDS free acids to Mexican heather plants (Example IV); format: in vivo, Cuphea hyssopifolia Kunth.; conditions: 200 ppm free acid; for root mass versus vegetative growth: within 10 mm of each plant
Procedure: Four sets of six Mexican Heather plants each were placed on trays without transplanting. 0.2 gm/liter stock solutions of IDS and EDDS free acids prepared according to Example III, supra, were used, in three different treatments (EDDS alone, IDS alone and a 50:50 mixture of EDDS and IDS) to treat the three sets of plants as set forth in Table IV, attached, by placing the solutions into the soil within 10 mm. of each of the plants. A fourth set was treated with distilled water (the ‘control’ set).

[1] = test system: germinated sweet corn seeds; assay: Germinated sweet corn seeds on water plates treated with tetra-sodium salt of EDDS (Example I); format: in vivo, Zea mays L. var. saccharata; conditions: for NUMBER OF SEED GERMINATED AND SURVIVED: Sweet corn, 10 seeds per plate; for germinating-seed stimulating concentration: germinating sweet corn seed, treating solution
Procedure: (§1) Styrofoam plates were each charged with 80 ml. water. The plates are titled: (a) the ‘control’ plates; (b) the ‘Treatment 1’ plates; and (c) the ‘Treatment 2’ plates.
(§2) Into the ‘control’ plates, the ‘Treatment 1’ plates and the ‘Treatment 2’ plates were placed, at the loading of 10 seeds per plate, germinated sweet corn seeds, germinated field corn seeds, germinated snap bean, seeds, germinated cantaloupe melon seeds and germinated soy bean seeds.
(§3) The ‘Treatment 1’ plates were then each treated with 0.1 ml. of a 38% aqueous solution of the tetra-sodium salt of EDDS (having the structure as set forth in FIG. 15), or 0.000475 gm./plate, or 475 ppm per plate.
(§4) The ‘Treatment 2’ plates were then each treated with 1 ml. of a 38% aqueous solution of the tetra-odium salt of EDDS, or 0.00475 gm./plate or 4750 ppm per plate.
(§5) No EDDS salt was added to the ‘control’ plate.
(§6) Over a period of 9 days, each plate had distilled water added thereto, as needed, in order to make up for the evaporation of the water during the 9 day period.
(§7) 9 days after the trial commenced, the number of germinated seeds which survived were as set forth in attached Table I.

[2] = test system: germinated field corn seeds; assay: Germinated field corn seeds on water plates treated with tetra-sodium salt of EDDS (Example I); format: in vivo, Zea mays L.; conditions: after 9 days; for NUMBER OF SEED GERMINATED AND SURVIVED: Field corn, 10 seeds per plate
Procedure: as §1, §2, §3, §4, §5, §6, §7

[3] = test system: germinated snap bean seeds; assay: Germinated snap bean seeds on water plates treated with tetra-sodium salt of EDDS (Example I); format: in vivo, Phaseolus vulgaris L.; conditions: Snap beans, 10 seeds per plate, after 9 days
Procedure: as §1, §2, §3, §4, §5, §6, §7

[4] = test system: germinated cantaloupe melon seeds; assay: Germinated cantaloupe melon seeds on water plates treated with tetra-sodium salt of EDDS (Example I); format: in vivo; conditions: 10 seeds per plate, after 9 days
Procedure: as §1, §2, §3, §4, §5, §6, §7

Lettuce seeds = conditions: cultured in a fertilizer soln. contg. 100 ppm; cited from earlier work
sweet corn seeds = assay: Sweet corn seeds on water plates treated with IDS salt alone or with EDDS salt (Example II); format: in vivo, Zea mays L. var. saccharata; conditions: 9 day period; IDS salt 4630 or 463 ppm per plate, or IDS + EDDS salt mixture (Treatment 3)
Procedure: Styrofoam plates were each charged with 80 ml. water. The plates are titled: (a) the ‘control’ plates; (b) the ‘Treatment 1’ plates; (c) the ‘Treatment 2’ plates and (d) the ‘Treatment 3’ plates.
Into the ‘control’ plates, the ‘Treatment 1’ plates, the ‘Treatment 2’ plates and the ‘Treatment 3’ plates, were placed, at a loading of 6 seeds per plate, sweet corn seeds, field corn seeds, cantaloupe melon seeds and soy bean seeds.
The ‘Treatment 1’ plates were then each treated with 1 ml. of a 37% solution of the tri-potassium salt of IDS (having the structure as set forth in FIG. 17), or 0.00463 gm./plate or 4630 ppm per plate.
The ‘Treatment 2’ plates were then each treated with 0.1 ml. of a 37% solution of the tri-potassium salt of IDS, or 0.000463 gm./plate, or 463 ppm per plate.
The ‘Treatment 3’ plates were then each treated with a mixture 0.5 ml. of a 37% solution of the tri-potassium salt of IDS and 0.5 ml. of a 38% solution of the tetra-sodium salt of EDDS, or 0.000231 gm/plate of the IDS salt and 0.000238 gm./plate of the EDDS salt.
No EDDS or IDS salts were added to the control plate.
Over a period of 9 days, each plate had distilled water added thereto, as needed, in order to make up for the evaporation of water during the 9 day period.
9 days after the trial commenced, the number of germinated seeds which survived were as set forth in attached Table II.

[5] = Treatment 1 (EDDS at 0.1 ml Per liter; 475 ppm per plate)
[6] = Treatment 2 (EDDS at 1 ml Per liter; 4750 ppm per plate)

## O=C(O)CC(NCCNC(CC(=O)O)C(=O)O)C(=O)O (mixture of isomers) [EDDS free acid, N,N′-1,2-ethanediylbis-aspartic acid]
Mexican Heather plants
  leaf position and internode lengths at the end of the experiment: the plant leaves are lower on the main stem and internode lengths are shortened
  root mass versus vegetative growth: promoted a greater root mass at the expense of vegetative growth

## O=C(O)CC(NCCNC(CC(=O)O)C(=O)O)C(=O)O (mixture of isomers) [tetra-sodium salt of EDDS, N,N′-1,2-ethanediylbis-aspartic acid]
[1]; Treatment 1 (EDDS at 0.1 ml Per liter; 475 ppm per plate), after 9 days
  NUMBER OF SEED GERMINATED AND SURVIVED: 10
[1]; Treatment 2 (EDDS at 1 ml Per liter; 4750 ppm per plate), after 9 days
  NUMBER OF SEED GERMINATED AND SURVIVED: 7
[1]; Treatment 1 plates (475 ppm per plate), after 9 days
  germination and growth of the germinated sweet corn seeds, as compared with the control: uniform germination and growth
[1]; Treatment 2 plates (4750 ppm per plate), after 9 days
  germination and growth of the sweet corn: inhibition of the germination and growth
[1]; at a concentration of about 10×10^−4 gram moles per liter
  action on germinating seed: acts as a germinating seed growth regulator
[1]
  germinating-seed stimulating concentration: about 1×10^−4 gram moles per liter
[2]; [5]
  NUMBER OF SEED GERMINATED AND SURVIVED: 9
[2]; [6]
  NUMBER OF SEED GERMINATED AND SURVIVED: 4
[2]; Treatment 2 plates (4750 ppm per plate)
  germination and growth of the field corn: inhibition of the germination and growth
[3]; [5]
  NUMBER OF SEED GERMINATED AND SURVIVED: 5
[3]; [6]
  NUMBER OF SEED GERMINATED AND SURVIVED: 1
[4]; [5]
  NUMBER OF SEED GERMINATED AND SURVIVED: 1
[4]; [6]
  NUMBER OF SEED GERMINATED AND SURVIVED: 0

## O=C(O)CC(N[C@@H](CC(=O)O)C(=O)O)C(=O)O (stereo partly shown) [IDS free acid, N-(1,2-dicarboxyethyl)aspartic acid]
Mexican Heather plants
  root mass versus vegetative growth: promoted a greater root mass at the expense of vegetative growth, although to a significantly lesser extent than done using EDDS

## O=C(O)C[C@H](NCCN[C@@H](CC(=O)O)C(=O)O)C(=O)O [S,S-ethylenediamine-N,N-disuccinic acid]
Lettuce seeds
  plant growth of lettuce: good plant growth

## O=C(O)CC(N[C@@H](CC(=O)O)C(=O)O)C(=O)O (stereo partly shown) [tri-potassium salt of IDS, N-(1,2-dicarboxyethyl)aspartic acid]
[1]
  germinating-seed stimulating concentration: about 1×10^−4 gram moles per liter
Sweet corn seeds
  germination and uniformity of seedling growth, sweet corn seeds: germinated and the resulting seedlings started to grow more uniformly
